The nature of test [1]: Interleukin-1-Beta-Induced Tumor Necrosis Factor Alpha Release by Human Macrophages. The format is cell-based. The following applies: Macrophage; TNF-α release; recombinant human IL-1β 20 ng/mL; compound 1 h before stimulation; supernatant at 24 h; ELISA. The source says: Interleukin-1-Beta-Induced Tumor Necrosis Factor Alpha Release by Human Macrophages
To determine the inhibitory concentrations for the test compounds against interleukin-1 beta (IL-1β)-induced tumor necrosis factor alpha (TNFα) release by human peripheral blood monocyte-derived macrophages. It should be understood that this is a test of the ability of the test compounds to modulate, i.e. inhibit, the activity of IL-1β by measuring the inhibition of IL-1β induced release of TNFα.
Source Human peripheral blood monocyte-derived macrophages:
Venous blood is collected form healthy volunteers in 10 mM sodium citrate (2 mL sterile sodium citrate for 40 mL blood). Mononuclear cells are isolated with the Leucoprep tubes (Becton Dickinson, product number 2752 or 2751) spun at 1500 g for fifteen minutes. Aliquots of 3×10^6 mononuclear cells are added to 24-well tissue culture plates (Corning) in RPMI-1640. After 1 hour incubation at 37° C., non-adherent cells are gently rinsed off. The adherent cells (macrophages) are given back fresh medium RPMI-1640, 1 mL/well.
Macrophage monolayer cultures are pretreated with compounds one hour prior to IL-1β (20 ng/mL, recombinant human IL-1β) stimulation. Compounds dissolved in 95% ethanol or DMSO would require additional monolayer cultures treated with 10 or 2.5 μl 95% ethanol or DMSO, respectively. Culture supernatants are collected 24 hours later and are tested for TNF-α using a commercial ELISA kit (Cistron).
The TNF-α concentration in the culture supernatant is calculated by a standard curve generated from a series of known concentrations. Potency of compound is reported in IC50 (μM).

For test [2], the system named is interleukin-1 beta (IL-1β) release (production) by human peripheral blood monocyte-derived macrophages. As to the kind of experiment: Endotoxin-Induced Interleukin-1 Beta Release by Human Macrophages. In kind it is cell-based. The following applies: Macrophage, endotoxin 20 ng/mL (Salmonella typhimurium, Re-mutant), compound 1 h before stimulation, supernatant at 24 h, ELISA. Here is the method: Endotoxin-Induced Interleukin-1 Beta Release by Human Macrophages The objective of this test is to determine the inhibitory concentrations for the test compounds against endotoxin-induced interleukin-1 beta (IL-1β) release (production) by human peripheral blood monocyte-derived macrophages. The source of the human peripheral blood monocyte-derived macrophages is as follows: Venous blood is collected from healthy volunteers in 10 mM sodium citrate (2 mL sterile sodium citrate for 40 mL blood). Mononuclear cells are isolated with the Leucoprep tubes (Becton Dickenson, product number 2752 or 2751) spun at 1500 g for 15 minutes. Aliquots of 3×10^6 mononuclear cells are added to 24-well tissue culture plates (Corning) in RPMI-1640. After one hour incubation at 37° C., non-adherent cells are gently rinsed off. The adherent cells (macrophages) are given back fresh medium RPMI-1640, 1 mL/well. Macrophage monolayer cultures are pretreated with compounds one hour prior to endotoxin (20 ng/mL, Salmonella typhimurium, Re-mutant, from Ribi Immuchem.) stimulation. Compounds dissolved in 95% ethanol or DMSO would require additional monolayer cultures treated with 10 or 2.5 μl 95% ethanol or DMSO, respectively. Culture supernatants are collected 24 hours later and are tested for IL-1β using a commercial ELISA kit (Cistron). The IL-1β concentration in the culture supernatant is calculated by a standard curve generated from a series of known concentrations. Potency of compound is reported in IC50 (μM).
Background: An ELISA detects its analyte on a solid surface through an enzyme-linked reagent.

The term IC50 denotes the concentration that inhibits the measured activity by half.

Take `COC(=O)c1cc(=NS(=O)(=O)c2ccccc2)c2c(Cl)cc(Cl)cc2[nH]1` [5,7-Dichloro-4-[benzenesulfonylimino]-1,4-dihydroquinoline-2-carboxylic acid, methyl ester]: the values for the IC50 in test [1] and in test [2] were 3000 nM and 6000 nM, respectively.

In the case of `COC(=O)c1cc(=NS(=O)(=O)c2ccccc2)c2ccccc2o1` [4-[Benzenesulfonylimino]-4H-chromene-2-carboxylic acid, methyl ester], the IC50 in test [1] came to 2000 nM; in test [2] it was 3000 nM.

Turning to `CCCCOC(=O)c1cc(=NS(=O)(=O)c2ccccc2)c2c(Cl)cc(Cl)cc2[nH]1` [5,7-Dichloro-4-[benzenesulfonylimino]-1,4-dihydroquinoline-2-carboxylic acid, butyl ester], the IC50 was 5000 nM in test [1] and 3000 nM in test [2].

For `CNC(=O)c1cc(=NS(=O)(=O)c2ccccc2)c2c(Cl)cc(Cl)cc2[nH]1` [5,7-Dichloro-4-[benzenesulfonylimino]-1,4-dihydroquinoline-2-carboxylic acid-N-methylamide], the IC50 in test [1] worked out at 4000 nM; in test [2], 3000 nM.

Turning to `CCOC(=O)c1cc(=NS(=O)(=O)c2ccccc2)c2c(Cl)cc(Cl)cc2[nH]1` [5,7-Dichloro-4-[benzenesulfonylimino]-1,4-dihydroquinoline-2-carboxylic acid, ethyl ester], the IC50 in test [1] stood at 3000 nM; in test [2], 2000 nM.

The values are drawn from patent US5668143A, “Heterocyclic benzenesulfonylimine derivatives as inhibitors of IL-1 action” (Merrell Pharmaceuticals Inc., priority 1996, dated 1997).
